# Several values for one entry are separate records, joined by “and”; a condition that tells them apart may be missing. Equal values may be shown once. Read-outs that look alike come from different tables or passages of the source.
# Key:
# osteoclasts [1] = experiment: in vitro
# Protocol: (§1) Since advantageous effects are seen at 1 μM, with half maximal effects at 2-3 μM, toxicity at 30 μM indicates a broad therapeutic margin. […] It should also be noted that doses would not be designed to achieve 100%, or even 50%, inhibition as osteoclasts are vital cells. Thus, 10-20% inhibition would likely result in a clear benefit to the patient without significant side effects, particularly as over-inhibtion would be compensated for by production of PTH.
# [2] = test system: avian osteoclast membrane HCl transport; experiment: Osteoclast membrane vesicle acid transport (acridine orange fluorescence quenching); assay type: biochemical, Gallus domesticus; conditions: for effect of valinomycin on inhibited vesicle acid transport: 120 mM KCl, 5 μM herbimycin, 20 μM genistein; for IC50: osteoclast membrane vesicles, read-out: half maximal inhibition of osteoclast acid transport / acid secretion; for reversal of inhibition by by-passing chloride conductivity with valinomycin: valinomycin 2 μM, potassium 120 mM; for activity on acid transport: 25 μM
# avian osteoclasts [3] = experiment: Bone resorption assay with [3H]-proline labeled bone and isolated osteoclasts; assay type: cell-based, Gallus domesticus; conditions: for IC (essentially complete): 72 h, read-out: concentration giving essentially complete inhibition of bone resorption; for bone resorption: negative to concentration: quadruplicate assays
# Protocol: Arian osteoclasts were isolated from medullary bone of calcium-starved white leghorn laying hens, Gallus domesticus, essentially as described by Blair et al. (1986). […] 90-98% of cell mass of sedimenting material consists of osteoclasts or essentially inert red cells (Zambonin-Zallone et al., 1982; Blair et al., 1986). Although rich in osteoclasts, these preparations contain significant numbers of all other components of bone, including osteoblasts and marrow cells.
# Cells were plated on glass cover slips in 3 cm petri plates for fluorescence studies, or 15 cm petri plates for Western Blots, or 24 well plates (2 cm^2 /well) for resorption and binding studies. For resorption and binding studies, cells were plated at 5×10^3 /well. Cells were maintained in α-MEM containing 5% fetal calf serum, 5% chicken serum, 100 μg/ml streptomycin and 100 units/ml penicillin at 37° C. in humidified air with 5% CO2.
# Where bone was used, this was devitalized fragmented rat bone (Blair et al., 1986) sieved to sizes indicated, usually 25-50 μm. For studies of osteoclasts attached to bone or tissue culture plates, 100 μg unlabeled bone per 2 cm^2 well was used, or 5 mg per 10 cm plate.
# Bone resorption was measured using [^3 H]-proline labeled bone (Blair et al., 1986).
# avian osteoclasts [4] = experiment: as above; assay type: cell-based, Gallus domesticus; conditions: Gallus gallus, Osteoclast, read-out: half maximal effect on bone resorption, 100 μg 3H-proline labeled bone, 10^4 osteoclasts
# osteoclasts [5] = experiment: Bone binding (adherence of labeled bone fragments to cultured osteoclasts); assay type: cell-based, Gallus domesticus
# Protocol: Bone binding was determined by adherence of bone fragments to cultured cells (Carano et al., 1990). Briefly, this entailed adding labeled bone fragments to 3 day osteoclast cultures, incubating 4 h at 37° C. in a α-MEM with 5% fetal calf serum and 5% chicken serum, washing with PBS […], solubilizing the label overnight in 6N HCl, and scintillation counting.
# in vitro = conditions: osteoclasts
# Protocol: as §1
# Aqueous solubility = assay type: physicochemical
# Protocol: (§2) The low aqueous solubility of genistein (<50 μg per ml) should also be considered. This might result in a maximum total absorption independent of dose. […] The present inventors have used this delivery method for studies performed in rats. […] NaTC is a naturally occurring bile salt and may have a role in the absorption of genistein released from food.
# [6] = Southeast Asians, 70 mg per day; cited from earlier work
# [7] = Biliary appearance of intestinally administered genistein in rats; assay type: in vivo; conditions: rat, bile, intestinal administration with NaTC, over a 4 hr period, read-out: fraction of administered genistein appearing in bile
# Protocol: as §2
structure (smiles),measurement,setting,value
CO[C@H]1[C@@H](OC)C[C@H](C)[C@@H](OC)C2=CC(=O)C=C(NC(=O)/C(C)=C/C=C\[C@H](OC)[C@@H](OC(N)=O)/C(C)=C/[C@@H]1C)C2=O [Herbimycin A],toxicity relative to genistein,osteoclasts [1],about ten times more toxic
same,"toxicity threshold relative to genistein, fold lower",osteoclasts [1]; chicken,about 10 fold
same,"effective dose on osteoclast acid secretion relative to genistein, fold lower",[2],about 10 fold
same,effect of valinomycin on inhibited vesicle acid transport,[2],restored acid transport activity
same,IC50,[2],~2000 nM
same,reversal of inhibition by by-passing chloride conductivity with valinomycin,[2],partially reversed
same,IC (essentially complete),"avian osteoclasts [3]; Gallus gallus, Osteoclast",1 µM
same,IC50,avian osteoclasts [4],300 to 500 nM
N#CC(C#N)=Cc1cc(O)c(O)c(O)c1 [Tyrphostin A25],activity on acid transport,[2],inactive
N#CC(=Cc1ccc(O)c(O)c1)C(N)=S [Tyrphostin A47],IC50,[2],12000 nM
same,bone resorption: negative to concentration,avian osteoclasts [3],> 20 µM
"O=c1c(-c2ccc(O)cc2)coc2cc(O)ccc12 [daidzein, 4',7-dihydroxyisoflavone]",activity on acid transport,[2],inactive
same,inhibition of osteoclast acid transport,[2]; 30 μM,< 20%
same,effect on bone resorption,avian osteoclasts [3]; 10 μM,no effect
same,inhibition at 30 µM,"avian osteoclasts [3]; Gallus gallus, Osteoclast, 30 μM",~10%
same,activity in the osteoclast assay systems,avian osteoclasts [3]; osteoclast assay systems disclosed,negligible activity
same,bone resorption: negative to concentration,avian osteoclasts [3],> 20 µM
"O=c1c(-c2ccc(O)cc2)coc2cc(O)cc(O)c12 [genistein, 5,7,4'-trihydroxyisoflavone]",effect on osteoclast binding to bone,osteoclasts [5],alter the ability of osteoclasts to bind to bone
same,time in which cells die,osteoclasts [1]; 30 μM genistein,2 to 3 days
same,MCC,in vitro; chicken,30 µM
same,selectivity ratio,in vitro,~30
same,level effective at inhibiting osteoclast acid secretion,[2],less than 1 μM and < 0.27 μg/ml
same,effect of valinomycin on inhibited vesicle acid transport,[2],valinomycin insensitive
same,inhibition of osteoclast cell membrane acid transport (FIG. 2),[2]; doses comparable to those inhibiting bone resorption,inhibited
same,IC50,[2],~3000 nM
same,reversal of inhibition by by-passing chloride conductivity with valinomycin,[2],not reversed
same,aqueous solubility when mixed with bile salt,Aqueous solubility; mixed with sodium taurocholate (NaTC),substantially enhanced
same,solubility,Aqueous solubility; water,< 50 µg/mL
same,ill effects of dietary intake,[6],without obvious ill effects
same,dose excreted at 4 h,[7],40 to 50%
same,inhibition of bone resorption / degradation (FIG. 1),avian osteoclasts [3],significantly inhibited
same,IC (essentially complete),"avian osteoclasts [3]; Gallus gallus, Osteoclast, at 3 days",20 µM
same,inhibition of bone resorption / degradation (FIG. 1),avian osteoclasts [3]; listed as Genistein,significantly inhibits
